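Results reflect a 48-hour exposure of cells in 96-well plates to compound at five concentrations. GI50 marks 50% less growth.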 Activity calls are given as the source filed them. Cut-off read from the data, not from the text of the source: active = GI50 up to about 1.1 µM and inactive = higher.
Assays:
Experiment in all cases: DTP human tumour cell line panel, 48 h
HL-60 = tested on: HL-60
UACC-257 = tested on: UACC-257
SN12C = tested on: SN12C
SNB-19 = tested on: SNB-19
A549 = tested on: A549
SW-620 = tested on: SW-620
HOP-92 = tested on: HOP-92
MCF7 = tested on: MCF7
HT-29 = tested on: HT-29
HCT-116 = tested on: HCT-116
K562 = tested on: K562
CAKI-1 = tested on: CAKI-1
PC-3 = tested on: PC-3
ACHN = tested on: ACHN
SF-268 = tested on: SF-268
Malme-3M = tested on: Malme-3M
HCT-15 = tested on: HCT-15
SR = tested on: SR

| Compound | GI50 (HL-60) | GI50 (UACC-257) | GI50 (SN12C) | GI50 (SNB-19) | GI50 (A549) | GI50 (SW-620) | GI50 (HOP-92) | GI50 (MCF7) | GI50 (HT-29) | GI50 (HCT-116) | GI50 (K562) | GI50 (CAKI-1) | GI50 (PC-3) | GI50 (ACHN) | GI50 (SF-268) | GI50 (Malme-3M) | GI50 (HCT-15) | GI50 (SR) |
| --- | --- | --- | --- | --- | --- | --- | --- | --- | --- | --- | --- | --- | --- | --- | --- | --- | --- | --- |
| O=C1/C(=C/c2ccc(O)cc2)CCC1CNc1ccccc1 (stereo not drawn) | 1.96 µM (inactive) | 16.7 µM (inactive) | 15 µM (inactive) | 16.3 µM (inactive) | 17.8 µM (inactive) | 2.54 µM (inactive) | 14.4 µM (inactive) | 2.25 µM (inactive) | 11.5 µM (inactive) | 5.64 µM (inactive) | 1.5 µM (inactive) | 12.5 µM (inactive) | 11.2 µM (inactive) | 12.3 µM (inactive) | 14.8 µM (inactive) | 15.3 µM (inactive) | 5.05 µM | 1.74 µM (inactive) |
| CC(O)c1cc2c(s1)C(=O)c1sccc1C2=O (stereo not drawn) | 0.0859 µM (active) | 0.0183 µM (active) | 0.112 µM (active) | 0.136 µM (active) | 0.155 µM (active) | 0.0453 µM (active) | 0.386 µM (active) | 0.152 µM (active) | 0.238 µM (active) | 0.151 µM (active) | 0.353 µM (active) | 0.552 µM (active) | 0.289 µM (active) | 0.15 µM (active) | 0.114 µM (active) | 0.0215 µM (active) | 0.0454 µM | 0.0803 µM (active) |
| CC1CC(=O)N(N(C)C)C(C#N)(C#N)C1(C#N)C#N (stereo not drawn) | 0.653 µM (active) | 15.1 µM (inactive) | 21 µM (inactive) | 28.7 µM (inactive) | 24.8 µM (inactive) | 5.12 µM (inactive) | 7.6 µM (inactive) | 22.4 µM (inactive) | 17.2 µM (inactive) | 17 µM (inactive) | 2.81 µM (inactive) | 2.3 µM (inactive) | 18.4 µM (inactive) | 15.4 µM (inactive) | 35.8 µM (inactive) | 12.2 µM (inactive) | 16.3 µM | 4.99 µM (inactive) |
| COC(=O)C1=C(O)C(C(=O)OC)[C@]2(O)[C@H](C(=O)OC)[C@H]1C[C@@H](c1ccc(O)cc1)[C@H]2C(=O)OC (stereo partly drawn) | 27.2 µM (inactive) | 19.4 µM (inactive) | 17.7 µM (inactive) | 30.2 µM (inactive) | 32.5 µM (inactive) | 50.7 µM (inactive) | 79.8 µM (inactive) | 22.6 µM (inactive) | 27.5 µM (inactive) | 27.7 µM (inactive) | 22.8 µM (inactive) | 21.2 µM (inactive) | 19.9 µM (inactive) | 36.4 µM (inactive) | 30.3 µM (inactive) | 32.7 µM (inactive) | 26.1 µM | 23.2 µM (inactive) |
| O=C1CSC2(CC(/C=C/c3ccccc3O)=NN2c2cccc(S(=O)(=O)O)c2)N1c1nc2ccccc2s1 (stereo not drawn) | 15.7 µM (inactive) | 41.7 µM (inactive) | 24.8 µM (inactive) | 53.7 µM (inactive) | 50.4 µM (inactive) | 37.3 µM (inactive) | 25.6 µM (inactive) | 34.3 µM (inactive) | 45.4 µM (inactive) | 38.3 µM (inactive) | 24.7 µM (inactive) | 28.3 µM (inactive) | 64 µM (inactive) | 32.1 µM (inactive) | 45 µM (inactive) | 41.9 µM (inactive) | 20 µM | 18.4 µM (inactive) |
| CCCCN1C(=O)CC2[C@@H]3CCc4cc(OC(C)=O)ccc4C3CC[C@]2(C)C1=O (stereo partly drawn) | 9.42 µM (inactive) | > 10 µM (inactive) | > 10 µM (inactive) | > 10 µM (inactive) | > 10 µM (inactive) | > 10 µM (inactive) | > 10 µM (inactive) | > 10 µM (inactive) | > 10 µM (inactive) | > 10 µM (inactive) | > 10 µM (inactive) | > 10 µM (inactive) | > 10 µM (inactive) | > 10 µM (inactive) | > 10 µM (inactive) | > 10 µM (inactive) | > 10 µM | > 10 µM (inactive) |
